Test results from the NIST ThermoML archive (doi:10.1016/j.jct.2014.12.004).
± gives the expanded uncertainty stated by the source.

Conditions: Crystal; DTA

Normal melting temperature [°C] | SMILES
259.1 ± 0.4 | O=c1c2ccccc2nc2n1CCc1c-2[nH]c2ccccc12 [Rutecarpine]
275.1 ± 0.4 | CN1c2ccccc2C(=O)N2CCc3c([nH]c4ccccc34)[C@H]21 [evodiamine]
